Results as given in ChEMBL document CHEMBL3525960, “Role of catechol-O-methyltransferase in the disposition of luteolin in rats” (Drug Metab Dispos, 2011).

What was measured:
Liver [1] = assay: Drug metabolism in Sprague-Dawley rat liver homogenate assessed as 4'-O-methylated luteolin at 20 uM after 20 to 60 mins; assay type: ADME, tissue-based; conditions: tissue homogenate
Small intestine [2] = assay: Drug metabolism in Sprague-Dawley rat small intestine homogenate assessed as 4'-O-methylated luteolin at 20 uM after 20 to 60 mins in presence of COMT inhibitor entacapone; assay type: ADME, tissue-based; conditions: tissue homogenate
[3] = Drug metabolism in Sprague-Dawley rat erythrocytes homogenate assessed as 3'-O-methylated luteolin at 20 uM after 20 to 60 mins; assay type: ADME, cell-based; conditions: erythrocyte
Lung [4] = assay: Drug metabolism in Sprague-Dawley rat lung homogenate assessed as 3'-O-methylated luteolin at 20 uM after 20 to 60 mins in presence of COMT inhibitor entacapone; assay type: ADME, tissue-based; conditions: tissue homogenate
[5] = Drug metabolism in Sprague-Dawley rat erythrocytes homogenate assessed as 4'-O-methylated luteolin at 20 uM after 20 to 60 mins; assay type: ADME, cell-based; conditions: erythrocyte
Small intestine [6] = assay: Drug metabolism in Sprague-Dawley rat small intestine homogenate assessed as 3'-O-methylated luteolin at 20 uM after 20 to 60 mins in presence of COMT inhibitor entacapone; assay type: ADME, tissue-based; conditions: tissue homogenate
[7] = Drug excretion in Sprague-Dawley rat urine at 6.5 mg/kg, iv after 24 hrs; assay type: ADME, organism-based; design: dose 6.5 mg/kg, route intravenous; conditions: read-out: Drug excretion
[8] = Drug excretion in Sprague-Dawley rat urine at 6.5 mg/kg, iv after 24 hrs co-treated with COMT inhibitor entacapone; assay type: ADME, organism-based; design: dose 6.5 mg/kg, route intravenous; conditions: read-out: Drug excretion
Lung [9] = assay: Drug metabolism in Sprague-Dawley rat lung homogenate assessed as 4'-O-methylated luteolin at 20 uM after 20 to 60 mins in presence of COMT inhibitor entacapone; assay type: ADME, tissue-based; conditions: tissue homogenate
[10] = Apparent permeability in human Caco2 cells; assay type: ADME, cell-based; conditions: caco-2
Small intestine [11] = assay: Drug metabolism in Sprague-Dawley rat small intestine homogenate assessed as 4'-O-methylated luteolin at 20 uM after 20 to 60 mins; assay type: ADME, tissue-based; conditions: tissue homogenate
Kidney [12] = assay: Drug metabolism in Sprague-Dawley rat kidney homogenate assessed as 4'-O-methylated luteolin at 20 uM after 20 to 60 mins; assay type: ADME, tissue-based; conditions: tissue homogenate
Lung [13] = assay: Drug metabolism in Sprague-Dawley rat lung homogenate assessed as 4'-O-methylated luteolin at 20 uM after 20 to 60 mins; assay type: ADME, tissue-based; conditions: tissue homogenate
[14] = Drug absorption in human Caco2 cells; assay type: ADME, cell-based; conditions: caco-2
[15] = Drug metabolism in Sprague-Dawley rat erythrocytes homogenate assessed as 3'-O-methylated luteolin at 20 uM after 20 to 60 mins in presence of COMT inhibitor entacapone; assay type: ADME, cell-based; conditions: erythrocyte
Kidney [16] = assay: Drug metabolism in Sprague-Dawley rat kidney homogenate assessed as 4'-O-methylated luteolin at 20 uM after 20 to 60 mins in presence of COMT inhibitor entacapone; assay type: ADME, tissue-based; conditions: tissue homogenate
[17] = Half life in Sprague-Dawley rat at 6.5 mg/kg, iv; assay type: ADME, organism-based; design: dose 6.5 mg/kg, route intravenous; conditions: in vivo
[18] = AUC (0 to t) in Sprague-Dawley rat at 6.5 mg/kg, iv co-treated with COMT inhibitor entacapone; assay type: ADME, organism-based; design: dose 6.5 mg/kg, route intravenous; conditions: plasma
[19] = Clearance in Sprague-Dawley rat at 6.5 mg/kg, iv; assay type: ADME, organism-based; design: dose 6.5 mg/kg, route intravenous; conditions: in vivo
[20] = Mean residence time (0 to t) in Sprague-Dawley rat at 6.5 mg/kg, iv co-treated with COMT inhibitor entacapone; assay type: ADME, organism-based; design: dose 6.5 mg/kg, route intravenous; conditions: in vivo
[21] = Drug metabolism in Sprague-Dawley rat erythrocytes homogenate assessed as 4'-O-methylated luteolin at 20 uM after 20 to 60 mins in presence of COMT inhibitor entacapone; assay type: ADME, cell-based; conditions: erythrocyte
[22] = Drug recovery in Sprague-Dawley rat urine assessed as retention time at 6.5 mg/kg, iv by reverse-phase HPLC method; assay type: ADME, organism-based; design: dose 6.5 mg/kg, route intravenous; conditions: in vivo
Small intestine [23] = assay: Drug metabolism in Sprague-Dawley rat small intestine homogenate assessed as 3'-O-methylated luteolin at 20 uM after 20 to 60 mins; assay type: ADME, tissue-based; conditions: tissue homogenate
Liver [24] = assay: Drug metabolism in Sprague-Dawley rat liver homogenate assessed as 3'-O-methylated luteolin at 20 uM after 20 to 60 mins in presence of COMT inhibitor entacapone; assay type: ADME, tissue-based; conditions: tissue homogenate
[25] = AUC (0 to infinity) in Sprague-Dawley rat at 6.5 mg/kg, iv co-treated with COMT inhibitor entacapone; assay type: ADME, organism-based; design: time infinity, dose 6.5 mg/kg, route intravenous; conditions: plasma
[26] = Clearance in Sprague-Dawley rat at 6.5 mg/kg, iv co-treated with COMT inhibitor entacapone; assay type: ADME, organism-based; design: dose 6.5 mg/kg, route intravenous; conditions: in vivo
Kidney [27] = assay: Drug metabolism in Sprague-Dawley rat kidney homogenate assessed as 3'-O-methylated luteolin at 20 uM after 20 to 60 mins; assay type: ADME, tissue-based; conditions: tissue homogenate
[28] = AUC (0 to infinity) in Sprague-Dawley rat at 6.5 mg/kg, iv; assay type: ADME, organism-based; design: time infinity, dose 6.5 mg/kg, route intravenous; conditions: plasma
Liver [29] = assay: Drug metabolism in Sprague-Dawley rat liver homogenate assessed as 3'-O-methylated luteolin at 20 uM after 20 to 60 mins; assay type: ADME, tissue-based; conditions: tissue homogenate
Liver [30] = assay: Drug metabolism in Sprague-Dawley rat liver homogenate assessed as 4'-O-methylated luteolin at 20 uM after 20 to 60 mins in presence of COMT inhibitor entacapone; assay type: ADME, tissue-based; conditions: tissue homogenate
[31] = Mean residence time (0 to infinity) in Sprague-Dawley rat at 6.5 mg/kg, iv co-treated with COMT inhibitor entacapone; assay type: ADME, organism-based; design: dose 6.5 mg/kg, route intravenous; conditions: in vivo
[32] = Volume of distribution in Sprague-Dawley rat at 6.5 mg/kg, iv; assay type: ADME, organism-based; design: dose 6.5 mg/kg, route intravenous; conditions: in vivo
[33] = Mean residence time (0 to infinity) in Sprague-Dawley rat at 6.5 mg/kg, iv; assay type: ADME, organism-based; design: dose 6.5 mg/kg, route intravenous; conditions: in vivo
Kidney [34] = assay: Drug metabolism in Sprague-Dawley rat kidney homogenate assessed as 3'-O-methylated luteolin at 20 uM after 20 to 60 mins in presence of COMT inhibitor entacapone; assay type: ADME, tissue-based; conditions: tissue homogenate
[35] = Volume of distribution in Sprague-Dawley rat at 6.5 mg/kg, iv co-treated with COMT inhibitor entacapone; assay type: ADME, organism-based; design: dose 6.5 mg/kg, route intravenous; conditions: in vivo
Lung [36] = assay: Drug metabolism in Sprague-Dawley rat lung homogenate assessed as 3'-O-methylated luteolin at 20 uM after 20 to 60 mins; assay type: ADME, tissue-based; conditions: tissue homogenate
[37] = AUC (0 to t) in Sprague-Dawley rat at 6.5 mg/kg, iv; assay type: ADME, organism-based; design: dose 6.5 mg/kg, route intravenous; conditions: plasma
[38] = Half life in Sprague-Dawley rat at 6.5 mg/kg, iv co-treated with COMT inhibitor entacapone; assay type: ADME, organism-based; design: dose 6.5 mg/kg, route intravenous; conditions: in vivo
[39] = Mean residence time (0 to t) in Sprague-Dawley rat at 6.5 mg/kg, iv; assay type: ADME, organism-based; design: dose 6.5 mg/kg, route intravenous; conditions: in vivo

O=c1cc(-c2ccc(O)c(O)c2)oc2cc(O)cc(O)c12 [LUTEOLIN]
Drug metabolism (Liver [1]): metabolite_detected | Drug metabolism (Small intestine [2]): metabolite_not_detected | Drug metabolism [3]: metabolite_detected | Drug metabolism (Lung [4]): metabolite_not_detected | Drug metabolism [5]: metabolite_detected | Drug metabolism (Small intestine [6]): metabolite_not_detected | dose excreted at 24 h [7]: 5.12% | dose excreted at 24 h [8]: 7.32% | Drug metabolism (Lung [9]): metabolite_not_detected | Papp [10]: 5.8 ×10⁻⁶ cm/s | Drug metabolism (Small intestine [11]): metabolite_detected | Drug metabolism (Kidney [12]): metabolite_detected | Drug metabolism (Lung [13]): metabolite_detected | Drug absorption [14]: 20% | Drug metabolism [15]: metabolite_not_detected | Drug metabolism (Kidney [16]): metabolite_not_detected | half-life [17]: 3.2 h | AUC(0-t) [18]: 11400 ng·h/mL | clearance [19]: 13.4 mL/min/kg | MRT last [20]: 1.65 h | Drug metabolism [21]: metabolite_not_detected | Retention_time [22]: 15.46 min | Drug metabolism (Small intestine [23]): metabolite_detected | Drug metabolism (Liver [24]): metabolite_not_detected | AUC(0-inf) [25]: 12500 ng·h/mL | clearance [26]: 8.95 mL/min/kg | Drug metabolism (Kidney [27]): metabolite_detected | AUC(0-inf) [28]: 8180 ng·h/mL | Drug metabolism (Liver [29]): metabolite_detected | Drug metabolism (Liver [30]): metabolite_not_detected | MRT inf [31]: 2.68 h | Vd [32]: 3.74 L/kg | MRT inf [33]: 2.32 h | Drug metabolism (Kidney [34]): metabolite_not_detected | Vd [35]: 2.57 L/kg | Drug metabolism (Lung [36]): metabolite_detected | AUC(0-t) [37]: 7600 ng·h/mL | half-life [38]: 3.31 h | MRT last [39]: 1.41 h
